Patent US9684238B2, “Fluorene-type compound, photopolymerization initiator comprising said fluorene-type compound, and photosensitive composition containing said photopolymerization initiator” (TOKYO OHKA KOGYO CO., LTD., priority 2012, dated 2017)

How the values were obtained:
[1] = Transmittance of transparent cured film; assay type: physicochemical; details: cured at exposure energy quantity 80 mJ/cm^2
Experimental: Transparent cured films were formed by using the photosensitive compositions obtained in Examples 1 to 9, Examples 2-1 to 2-10, and Comparative Examples 1 and 2 in the same manner as in the evaluation 1 except that the exposure energy quantity was set to 80 mJ/cm^2. The transmittance (%) of each of the resultant transparent cured films at 400 nm and the average transmittance (%) thereof in the range of from 400 to 700 nm were measured with a spectrophotometer (manufactured by Hitachi High-Technologies Corporation, trade name: “U-3900H”, quartz cell, optical path length; 1 cm). A higher transmittance at 400 nm means less coloring with a yellow color. In addition, a higher transmittance of a coating film means a higher transmitting property of a pattern to be formed.

[2] = Evaluation 3: 20-μm pattern line width of black photosensitive composition; details: black composition (carbon black, cardo resin), initiator 0.4 mmol
Description: The mixture was filtered with a membrane filter having an aperture of 5 μm to provide a photosensitive composition.
Photosensitive compositions were each obtained in the same manner as in Example 10 except that the used fluorene-based compound and its usage were changed as shown in Table 5.
Each of the photosensitive compositions obtained in Examples 10 to 15, Examples 2-11 to 2-20, and Comparative Example 3 was applied onto a glass substrate with a spin coater (manufactured by Kyowariken Co., Ltd., trade name: “K-359SD1”) so that its thickness after drying became 1.0 μm. The glass substrate after the application was dried with a fan dryer at 90° C. for 10 minutes. Thus, a coating film (photosensitive layer) was formed. Next, the film was exposed to light having an exposure energy quantity of 10 mJ/cm^2, 20 mJ/cm^2, 40 mJ/cm^2, 60 mJ/cm^2, or 80 mJ/cm^2 by using a high-pressure mercury lamp (manufactured by Karl Suss, trade name: “MASK ALIGNER”) through a negative mask (mask width: 20 μm). Next, the resultant was immersed in a 0.1 wt % aqueous solution of tetra methyl ammonium hydroxide (TMAH) and then rinsed with pure water. The remaining cured film was subjected to the following evaluation. In addition, FIGS. 2, 3, and 6 show microscope photographs of black cured films obtained by using the photosensitive compositions of Examples 10 and 11, and Comparative Example 3, and FIGS. 7 to 11 show microscope photographs of black cured films obtained by using the photosensitive compositions of Examples 2-11, 2-13, 2-14, 2-17, and 2-18.
(§1) A larger value for the line width means higher sensitivity.

[3] = Evaluation 1: 20-μm pattern line width of transparent photosensitive composition; details: for 20-μm pattern line width: transparent composition, initiator 0.4 mmol; for sensitivity to the active energy ray (in words): photopolymerization initiator containing the compound
Experimental: After that, the mixture was filtered with a membrane filter having an aperture of 5 μm to provide a photosensitive composition.
It should be noted that the fluorene-based compound as a photopolymerization initiator was used in such an amount that its molar quantity was kept constant in the respective examples and comparative examples.
The glass substrate after the application was dried with a fan dryer at 90° C. for 10 minutes. Thus, a coating film (photosensitive layer) was formed. Next, the film was exposed to light having an exposure energy quantity of 5 mJ/cm^2, 10 mJ/cm^2, 20 mJ/cm^2, 40 mJ/cm^2, 60 mJ/cm^2, or 80 mJ/cm^2 by using a high-pressure mercury lamp (manufactured by Karl Suss, trade name: “MASK ALIGNER”) through a negative mask (mask width: 20 μm). Next, the resultant was immersed in a 0.1 wt % aqueous solution of tetramethylammonium hydroxide (TMAH) and then rinsed with pure water. The remaining cured film was subjected to the following evaluation.
as §1

[4] = Average transmittance of composition; assay type: physicochemical; details: photosensitive composition, quartz cell, optical path length 1 cm
Experimental: The average transmittance (%) of each of the photosensitive resin compositions obtained in Examples 1 to 9, Examples 2-1 to 2-10, and Comparative Examples 1 and 2 in the range of from 400 nm to 700 nm was measured with a spectrophotometer (manufactured by Hitachi High-Technologies Corporation, trade name: “U-3900H”, quartz cell, optical path length; 1 cm).

[5] = Decomposition point by thermal analysis (TG-DTA); assay type: physicochemical; details: 5.0 mg
Experimental: The compounds 1, 2, 4, 6, 8, 9, 11, 12, 13, 15, 16, D-1, D-3, D-4, D-7, D-8, D-9, D-12, D-14, D-15, D-20, C-1, and C-2 were each subjected to measurement with a thermal analysis apparatus (TG-DTA) (manufactured by Rigaku Corporation, trade name: “Thermo Plus EVO TG 8120”) by using 5.0 mg thereof.

[6] = Absorption coefficient (absorbance of 0.001% solution in tetrahydrofuran); assay type: physicochemical; details: for Λ max (absorption maximum wavelength): 0.001% (wt/vol) in tetrahydrofuran, from 280 nm to 400 nm; for Absorption coefficient at 365 nm / Absorption coefficient at Λ max: 0.001% (wt/vol) solution in tetrahydrofuran
Experimental: A 0.001% (wt/vol) solution of each of the compounds 1, 2, 4, 6, 8, 9, 11, 12, 13, 15, 16, D-1, D-3, D-4, D-7, D-8, D-9, D-12, D-14, D-15, D-20, C-1, and C-2 in tetrahydrofuran was prepared, and its absorbance was measured with a spectrophotometer (manufactured by Hitachi High-Technologies Corporation, trade name: “U-3900H”). An absorption maximum wavelength (Amax) at a wavelength of from 280 nm to 400 nm was read from an absorption spectrum obtained with the spectrophotometer.

[7] = Solubility in PGME, PGMEA and ethyl lactate; assay type: physicochemical; details: room temperature; for Solubility Ethyl lactate: in 100 parts by weight of ethyl lactate; for Solubility PGMEA: in 100 parts by weight of propylene glycol monomethyl ether acetate; for Solubility PGME: in 100 parts by weight of propylene glycol monomethyl ether
Experimental: An evaluation for solubility was performed in accordance with the following evaluation criteria based on the dissolution amount.
A: 10 Parts by weight or more of the photopolymerization initiator is dissolved.
B: An amount in the range of from 5 parts by weight or more to less than 10 parts by weight of the photopolymerization initiator is dissolved.
C: An amount in the range of from 2 parts by weight or more to less than 5 parts by weight of the photopolymerization initiator is dissolved.
D: Less than 2 parts by weight of the photopolymerization initiator is dissolved.

[8] = exposure energy quantity 20 mJ/cm^2
[9] = exposure energy quantity 40 mJ/cm^2
[10] = exposure energy quantity 60 mJ/cm^2
[11] = exposure energy quantity 80 mJ/cm^2
[12] = exposure energy quantity 10 mJ/cm^2
[13] = exposure energy quantity 5 mJ/cm^2

Structure (SMILES): CCn1c2ccc(C(=O)c3ccccc3C)cc2c2cc(/C(C)=N/OC(C)=O)ccc21 [Compound C-1, reference compound]
- Average transmittance (700 nm to 400 nm) Transparent cured film [1]: 99.8%
- Transmittance (400 nm) Transparent cured film [1]: 98.9%
- 20-μm pattern line width ([2]; 10 mJ/cm^2): 18.5
- 20-μm pattern line width ([2]; 20 mJ/cm^2): 19.0
- 20-μm pattern line width ([2]; 40 mJ/cm^2): 20.0
- 20-μm pattern line width ([2]; 60 mJ/cm^2): 20.9
- 20-μm pattern line width ([2]; 80 mJ/cm^2): 21.2
- 20-μm pattern line width [3, 8]: 20.4
- 20-μm pattern line width [3, 9]: 22.1
- 20-μm pattern line width [3, 10]: 22.3
- 20-μm pattern line width [3, 11]: 22.4
- Average transmittance (700 nm to 400 nm) Solution [4]: 94.2%
- Decomposition point [5]: 216.4 °C
- Λ max (absorption maximum wavelength) [6]: 298.5 nm
- Absorption coefficient at 365 nm [6]: 4.4 mL/mg/cm
- Absorption coefficient at Λ max [6]: 94.4 mL/mg/cm
- Solubility Ethyl lactate [7]: C (An amount in the range of from 2 parts by weight or more to less than 5 parts by weight of the photopolymerization initiator is dissolved.)
- Solubility PGMEA [7]: B (An amount in the range of from 5 parts by weight or more to less than 10 parts by weight of the photopolymerization initiator is dissolved.)
- Solubility PGME [7]: B (An amount in the range of from 5 parts by weight or more to less than 10 parts by weight of the photopolymerization initiator is dissolved.)

Structure (SMILES): CCCC1(CCC)c2cc(C(=NOC(C)=O)c3ccccc3)ccc2-c2ccc([N+](=O)[O-])cc21 [Compound D-1]
- Average transmittance (700 nm to 400 nm) Transparent cured film [1]: 99.2%
- Transmittance (400 nm) Transparent cured film [1]: 91.7%
- 20-μm pattern line width ([2]; 10 mJ/cm^2): 19.4
- 20-μm pattern line width ([2]; 20 mJ/cm^2): 20.4
- 20-μm pattern line width ([2]; 40 mJ/cm^2): 21.9
- 20-μm pattern line width ([2]; 60 mJ/cm^2): 22.3
- 20-μm pattern line width ([2]; 80 mJ/cm^2): 23.1
- sensitivity to the active energy ray (in words) [3]: additionally high sensitivity to the active energy ray
- 20-μm pattern line width [3, 12]: 20.2
- 20-μm pattern line width [3, 8]: 20.9
- 20-μm pattern line width [3, 9]: 22.4
- 20-μm pattern line width [3, 10]: 22.8
- 20-μm pattern line width [3, 11]: 23.1
- Average transmittance (700 nm to 400 nm) Solution [4]: 57.5%
- Decomposition point [5]: 273.4 °C
- Λ max (absorption maximum wavelength) [6]: 343.5 nm
- Absorption coefficient at 365 nm [6]: 33.2 mL/mg/cm
- Absorption coefficient at Λ max [6]: 54.1 mL/mg/cm
- Solubility Ethyl lactate [7]: D (Less than 2 parts by weight of the photopolymerization initiator is dissolved.)
- Solubility PGMEA [7]: C (An amount in the range of from 2 parts by weight or more to less than 5 parts by weight of the photopolymerization initiator is dissolved.)
- Solubility PGME [7]: D (Less than 2 parts by weight of the photopolymerization initiator is dissolved.)

Structure (SMILES): CCCC1(CCC)c2cc(C(C)=NOC(C)=O)ccc2-c2ccc([N+](=O)[O-])cc21 [Compound D-3]
- Average transmittance (700 nm to 400 nm) Transparent cured film [1]: 99.8%
- Transmittance (400 nm) Transparent cured film [1]: 95.2%
- 20-μm pattern line width ([2]; 10 mJ/cm^2): 19.6
- 20-μm pattern line width ([2]; 20 mJ/cm^2): 20.6
- 20-μm pattern line width ([2]; 40 mJ/cm^2): 21.6
- 20-μm pattern line width ([2]; 60 mJ/cm^2): 22.1
- 20-μm pattern line width ([2]; 80 mJ/cm^2): 22.6
- sensitivity to the active energy ray (in words) [3]: additionally high sensitivity to the active energy ray
- 20-μm pattern line width [3, 13]: 19.6
- 20-μm pattern line width [3, 12]: 20.9
- 20-μm pattern line width [3, 8]: 21.4
- 20-μm pattern line width [3, 9]: 22.5
- 20-μm pattern line width [3, 11]: 23.8
- Average transmittance (700 nm to 400 nm) Solution [4]: 88.9%
- Decomposition point [5]: 272.2 °C
- Λ max (absorption maximum wavelength) [6]: 345.5 nm
- Absorption coefficient at 365 nm [6]: 46.3 mL/mg/cm
- Absorption coefficient at Λ max [6]: 67.8 mL/mg/cm
- Solubility Ethyl lactate [7]: D (Less than 2 parts by weight of the photopolymerization initiator is dissolved.)
- Solubility PGMEA [7]: C (An amount in the range of from 2 parts by weight or more to less than 5 parts by weight of the photopolymerization initiator is dissolved.)
- Solubility PGME [7]: D (Less than 2 parts by weight of the photopolymerization initiator is dissolved.)

Structure (SMILES): CCCC1(CCC)c2cc(C(=O)/C(C)=N/OC(C)=O)ccc2-c2ccc(C(=O)c3ccc([N+](=O)[O-])cc3)cc21 [Compound D-9]
- Average transmittance (700 nm to 400 nm) Transparent cured film [1]: 99.8%
- Transmittance (400 nm) Transparent cured film [1]: 96.4%
- 20-μm pattern line width ([2]; 10 mJ/cm^2): 18.8
- 20-μm pattern line width ([2]; 20 mJ/cm^2): 19.1
- 20-μm pattern line width ([2]; 40 mJ/cm^2): 20.1
- 20-μm pattern line width ([2]; 60 mJ/cm^2): 20.9
- 20-μm pattern line width ([2]; 80 mJ/cm^2): 21.2
- 20-μm pattern line width [3, 13]: 19.3
- 20-μm pattern line width [3, 12]: 19.5
- 20-μm pattern line width [3, 8]: 20.0
- 20-μm pattern line width [3, 9]: 20.7
- 20-μm pattern line width [3, 11]: 21.7
- Average transmittance (700 nm to 400 nm) Solution [4]: 70.9%
- Decomposition point [5]: 228.9 °C
- Λ max (absorption maximum wavelength) [6]: 343.0 nm
- Absorption coefficient at 365 nm [6]: 29.1 mL/mg/cm
- Absorption coefficient at Λ max [6]: 63.7 mL/mg/cm
- Solubility Ethyl lactate [7]: C (An amount in the range of from 2 parts by weight or more to less than 5 parts by weight of the photopolymerization initiator is dissolved.)
- Solubility PGMEA [7]: C (An amount in the range of from 2 parts by weight or more to less than 5 parts by weight of the photopolymerization initiator is dissolved.)
- Solubility PGME [7]: D (Less than 2 parts by weight of the photopolymerization initiator is dissolved.)
